Columns and labels:
[1] = tested on: A-498 renal cell carcinoma cells; experiment: qRT-PCR, combination with STING agonist ADU-S100, A-498 cells; assay type: cell-based, Human; details: 2 μM Compound 1 or 2, 50 μM ADU-S100, 24 h
Protocol: A-498 cells were grown in Minimal Essential Medium containing 10% fetal bovine serum. Cells were then incubated for 2 days at 37 degrees Celsius, 5% CO2, and 95% humidity. A-498 cells were treated with DMSO control, 2 μM Compound 1 or 2 μM Compound 2 in combination with 50 μM STING agonist ADU-S100 for 24 h. Cells were washed with PBS and RNA was isolated using the PureLink RNA kit (#12183018A, Thermo Fisher Scientific) according to the manufacturer's protocol. Genomic DNA was removed using DNA-binding columns (RNeasy plus kit, #74134, Qiagen) and/or DNase treatment (#12185010, Thermo Fisher Scientific). RNA was quantified using NanoDrop (Thermo Fisher Scientific) and 50 ng/μL RNA was used for cDNA synthesis with SuperScript IV VILO Master Mix (#11756050, Thermo Fisher Scientific). Quantitative RT-PCR (qRT-PCR) was run with diluted cDNA (1:25 or 1:12.5), PowerUp SYBR Green Master Mix (#A25741, Thermo Fisher Scientific), and 200 nM primers (see below) on a CFX Connect RT-PCR system (BioRad). Data was analyzed using the ΔΔCT method. Results are mean±SEM of three independent experiments.

[2] = tested on: 786-O renal cell carcinoma cells; experiment: qRT-PCR, combination with STING agonist ADU-S100, 786-O cells; assay type: cell-based, Human; details: 2 μM Compound 1 or 2, 50 μM ADU-S100, 24 h
Protocol: 786-O cells were grown in RPMI-1640 medium containing 10% fetal bovine serum. Cells were then incubated for 2 days at 37 degrees Celsius, 5% CO2, and 95% humidity. […] cells were treated with DMSO control, 2 μM Compound 1 or 2 μM Compound 2 in combination with 50 μM STING agonist ADU-S100 for 24 h. Cells were washed with PBS and RNA was isolated using the PureLink RNA kit (#12183018A, Thermo Fisher Scientific) according to the manufacturer's protocol. Genomic DNA was removed using DNA-binding columns (RNeasy plus kit, #74134, Qiagen) and/or DNase treatment (#12185010, Thermo Fisher Scientific). RNA was quantified using NanoDrop (Thermo Fisher Scientific) and 50 ng/μL RNA was used for cDNA synthesis with SuperScript IV VILO Master Mix (#11756050, Thermo Fisher Scientific). Quantitative RT-PCR (qRT-PCR) was run with diluted cDNA (1:25 or 1:12.5), PowerUp SYBR Green Master Mix (#A25741, Thermo Fisher Scientific), and 200 nM primers (see below) on a CFX Connect RT-PCR system (BioRad). Data was analyzed using the ΔΔCT method. Results are mean±SEM of three independent experiments.

[3] = tested on: A-498 renal cell carcinoma cells; experiment: Cytokine secretion assay, combination with ADU-S100, A-498 cells; assay type: cell-based, human; details: 2 μM Compound 1 or 2, 50 μM ADU-S100, 24 h
Protocol: (§1) A-498 cells were treated with DMSO control, 2 μM Compound 1 or 2 μM Compound 2 in combination with 50 μM STING agonist ADU-S100 for 24 h. Cell culture medium was centrifuged at 1600 rpm for 10 min at 4° C. and obtained supernatant stored at −80° C. Cytokine levels were quantified using following Meso Scale Discovery (MSD) assays: human R-PLEX RANTES/CCL5 (#F21ZN), U-PLEX CXCL10/IP-10 (#K151UFK). Assays were run on the SECTOR Quickplex Imager and analyzed using Discovery Workbench version 4.0 (MSD). Low concentrations of human IFNβ were determined using High Sensitivity IFN Beta ELISA Kit, (PBL assay science, #41415-1).

[4] = tested on: 786-O renal cell carcinoma cells; experiment: Cytokine secretion assay, combination with ADU-S100, 786-O cells; assay type: cell-based, human; details: 2 μM Compound 1 or 2, 50 μM ADU-S100, 24 h
Protocol: as §1, with “786-O” for “A-498”

[5] = tested on: B16-F10 melanoma cells; experiment: qRT-PCR, combination with ADU-S100, B16-F10 cells; assay type: cell-based, Murine; details: for IFNB1 mRNA expression: 2 μM Compound 1 or 2, 10 μM ADU-S100, 4 h; for CCL5 mRNA expression / CXCL10 mRNA expression: 2 μM Compound 1 or 2, 10 μM ADU-S100, 24 h
Protocol: B16-F10 cells were grown in DMEM/F12 medium containing 10% fetal bovine serum. Cells were then incubated for 2 days at 37 degrees Celsius, 5% CO2, and 95% humidity. […] cells were reversely transfected with scrambled siRNA control (siSCR) or siRNA targeting STING (siSTING). […] Cells were washed with PBS and RNA was isolated using the PureLink RNA kit (#12183018A, Thermo Fisher Scientific) according to the manufacturer's protocol. Genomic DNA was removed using DNA-binding columns (RNeasy plus kit, #74134, Qiagen) and/or DNase treatment (#12185010, Thermo Fisher Scientific). RNA was quantified using NanoDrop (Thermo Fisher Scientific) and 50 ng/μL RNA was used for cDNA synthesis with SuperScript IV VILO Master Mix (#11756050, Thermo Fisher Scientific). Quantitative RT-PCR (qRT-PCR) was run with diluted cDNA (1:25 or 1:12.5), PowerUp SYBR Green Master Mix (#A25741, Thermo Fisher Scientific), and 200 nM primers (see below) on a CFX Connect RT-PCR system (BioRad). Data was analyzed using the ΔΔCT method. Results are mean±SEM of three independent experiments.

SMILES: Nc1ncnc2c1ncn2[C@@H]1O[C@@H]2COP(=O)([S-])O[C@@H]3[C@H](O)[C@@H](COP([O-])(=S)O[C@H]2[C@H]1O)O[C@H]3n1cnc2c(N)ncnc21.[Na+].[Na+] (stereo partly drawn) [ADU-S100, reference compound]
- CCL5 mRNA expression [1]: increased
- CXCL10 mRNA expression [1]: increased
- IFNB1 mRNA expression [1]: no effect
- CCL5 mRNA expression [2]: increased
- CXCL10 mRNA expression [2]: no effect
- IFNB1 mRNA expression [2]: no effect
- CCL5 secretion [3]: mildly increased
- CXCL10 secretion [3]: mildly increased
- IFNβ secretion [3]: no effect
- CCL5 secretion [4]: significantly increased
- CXCL10 secretion [4]: significantly increased
- IFNβ secretion [4]: mild effect
- IFNB1 mRNA expression [5]: did not increase
- CCL5 mRNA expression [5]: did increase
- CXCL10 mRNA expression [5]: did increase

SMILES: C[C@@H]1COCCN1c1cc(N2CCCC[C@@H]2C(F)(F)F)[nH]c(=O)c1 [Compound 1, 4-((R)-3-methylmorpholino)-6-((R)-2-(trifluoromethyl)piperidin-1-yl)pyridin-2(1H)-one]
- CCL5 mRNA expression [1]: mildly increased
- CXCL10 mRNA expression [1]: mildly increased
- IFNB1 mRNA expression [1]: mildly increased
- CCL5 mRNA expression [2]: increased
- CXCL10 mRNA expression [2]: increased
- IFNB1 mRNA expression [2]: increased
- CCL5 secretion [3]: increased
- CXCL10 secretion [3]: increased
- IFNβ secretion [3]: increased
- CCL5 secretion [4]: increased
- CXCL10 secretion [4]: increased
- IFNβ secretion [4]: increased
- IFNB1 mRNA expression [5]: did not increase
- CCL5 mRNA expression [5]: mildly increase
- CXCL10 mRNA expression [5]: mildly increase

SMILES: C[C@@H]1COCCN1c1cc(=O)n2c(n1)N(Cc1cncc(Cl)c1)[C@H](C(F)(F)F)CC2 [Compound 2, (S)-9-((5-chloropyridin-3-yl)methyl)-2-((R)-3-methylmorpholino)-8-(trifluoromethyl)-6,7,8,9-tetrahydro-4H-pyrimido[1,2-a]pyrimidin-4-one]
- CCL5 mRNA expression [1]: mildly increased
- CXCL10 mRNA expression [1]: mildly increased
- IFNB1 mRNA expression [1]: mildly increased
- CCL5 mRNA expression [2]: increased
- CXCL10 mRNA expression [2]: increased
- IFNB1 mRNA expression [2]: increased
- CCL5 secretion [3]: increased
- CXCL10 secretion [3]: increased
- IFNβ secretion [3]: increased
- CCL5 secretion [4]: increased
- CXCL10 secretion [4]: increased
- IFNβ secretion [4]: increased
- IFNB1 mRNA expression [5]: did not increase
- CCL5 mRNA expression [5]: mildly increase
- CXCL10 mRNA expression [5]: mildly increase
